Values quoted from earlier work, collected in patent US20210052557A1, “COMPOSITIONS FOR TREATING INFECTIVE ARTERIAL DISEASES AND RELATED CONDITIONS” (CENTRE FOR DIGESTIVE DISEASES, priority 2018, published 2021).

Columns and labels:
[1] = system: Chlamydophila pneumoniae (Cpn); conditions: single antibiotic given to patients
[2] = system: Chlamydophila pneumoniae (Cpn)

Structure (SMILES)	clinical benefit as monotherapy [1]	activity against Chlamydophila pneumoniae (Cpn) [2]
CC[C@H]1OC(=O)[C@H](C)[C@@H](O[C@H]2C[C@@](C)(OC)[C@@H](O)[C@H](C)O2)[C@H](C)[C@@H](O[C@@H]2O[C@H](C)C[C@H](N(C)C)[C@H]2O)[C@](C)(O)C[C@@H](C)CN(C)[C@H](C)[C@@H](O)[C@]1(C)O [Azithromycin]	some benefit, but this was not sustained	
CN(C)c1cc(NC(=O)CNC(C)(C)C)c(O)c2c1C[C@H]1C[C@H]3[C@H](N(C)C)C(O)=C(C(N)=O)C(=O)[C@@]3(O)C(O)=C1C2=O [Tigecycline]		good activity
CC[C@H]1OC(=O)[C@H](C)C(=O)[C@H](C)[C@@H](O[C@@H]2O[C@H](C)C[C@H](N(C)C)[C@H]2O)[C@](C)(OC/C=C/c2cnc3ccccc3c2)C[C@@H](C)C(=O)[C@H](C)[C@H]2NC(=O)O[C@@]21C [cethromycin]		most active of the macrolides
CC[C@H]1OC(=O)[C@H](C)[C@@H](O[C@H]2C[C@@](C)(OC)[C@@H](O)[C@H](C)O2)[C@H](C)[C@@H](O[C@@H]2O[C@H](C)C[C@H](N(C)C)[C@H]2O)[C@](C)(O)C[C@@H](C)/C(=N\OCOCCOC)[C@H](C)[C@@H](O)[C@]1(C)O [roxithromycin]	Benefit	
